Key:
[1] = system: S. aureus strain NRS119 (SA LinR #12; linezolid resistant); assay: Plate lysis assay (FIG. 3); format: cell-based; settings: lawn on TSA plates, observed over days
Protocol: Purified proteins for each construct were diluted in sterile nickel column elution buffer, and 6 μL of lysostaphin (11 μg) or the constructs (0.2 nmoles or ˜11 μg for the repaired construct 2638A 1-180Mut-486) was spotted onto a freshly spread lawn of S. aureus strain NRS119 (SA LinR #12; linezolid resistant) growing cells that had air dried for 30 min on tryptic soy agar (TSA) plates. L=[…] Lysostaphin (Sigma); Spot 1=11 μg; all other constructs are 0.2 nmoles (˜11 μg for the repaired construct 2638A 1-180Mut-486) […]. The spotted plates were air dried for 10 min in a laminar flow hood and incubated overnight in a 37° C. environment. Scoring of the cleared spots occurred within 20 h of plating the cells.
The Plate Lysis assay results (FIG. 3) agree with the turbidity reduction assay. Each of the M23 peptidase dependent or SH3b-truncating constructs showing weak activity on S. aureus strain Newman strain. In addition to the Plate Lysis results in FIG. 3, we have also examined numerous strains with reduced but real lytic activity (Table 1). However, the plate lysis results with the 2638A endolysin constructs are extremely novel in appearance. Plate lysis results are routinely visualized as a discrete cleared spot on a lawn of bacteria after a single overnight of culture. […]

MRSA strain NRS382 = assay: Control of systemic MRSA infection in a murine model; format: in vivo, Staphylococcus aureus; settings: for Mean NRS382 Titer in the Blood: Recovered 48 hr post infection from surviving mice, same doses
S. aureus strain Newman [2] = assay: Zymogram analysis; format: cell-based; settings: 5 μg loaded; SDS treated S. aureus Newman embedded in gel; FIG. 1C
Source text: Zymograms are not usually interpreted quantitatively (especially since these were loaded with μg equivalents and not molar equivalents of enzyme) but rather are used to indicate that the minor contaminating bands in the preparations are not contributing to the activity of the preparation. There was virtually no activity from any of the minor (non-shadow) bands in the zymogram assay after extended periods. However, the presence of nearly equal amounts of the active shadow band (from stained SDS gel) in many preparations negated the ability to quantify the activity from either the isolated amidase domain (2638A 139-411; 2638A 139-486) or the full length construct.

S. aureus strain Newman [3] = assay: Turbidity reduction assay; format: cell-based; settings: 0.5 μM protein; live S. aureus Newman; Mn2+, Mg2+, Ca2+ 1 mM; FIG. 3
Protocol: The turbidity assay measures the drop in optical density (OD) resulting from lysis of the target bacteria with the phage endolysin-derived protein. Mid log phase (OD600 nm of 0.4-0.6) target cells were grown in Brain Heart Infusion (Becton Dickenson, Franklin Lakes, N.J.) and concentrated in lysing buffer A (LBA; 50 mM ammonium acetate, 10 mM CaCl2, 1 mM DTT at pH 6.2) to an OD600 nm of ˜2.0. The turbidity reduction assays were performed with identical molar amounts of proteins and S. aureus strain Newman with the addition of the bivalent metal cations Mn^2+, Mg^2+, and Ca^2+ at a concentration of 1 mM. The turbidity reduction assay contained 0.5 μM protein (5.7 μg of full length repaired construct: 2638A 1-180Mut-486 in 200 μl assay) unless otherwise noted. Lane 1, 2638A 1-486 (5.7 μg total protein in 200 μl assay); Lane 2, 2638A 1-196; Lane 3, 2638A 1-220; Lane 4, 2638A 1-244; Lane 5, 2638A 1-220::355-486; Lane 6, 2638A 1-411; Lane 7, 2638A 139-411; Lane 8, 2638A 139-486; Lane 9, 2638A 180-486; Lane 10, 2638A 1-180Mut-486. Mixing reactions between the repaired full length construct 2638A 1-180Mut-486 (R) and the engineered amidase-SH3b construct 2638A 180-486 (A) were performed in the following ratios Lane 11, R:A::1:1, 1 μM; Lane 12, R:A::1:1, 0.5 μM; Lane 13, R:A::1:3, 0.5 μM; and Lane 14, R:A::3:1, 0.5 μM. Optical Density measurements are taken at regular intervals. If the lysin can digest the cell wall, lysis will occur with a subsequent reduction in OD. Changes in the OD600 nm in the control sample (cells alone) were subtracted from samples containing both cells and lysin, before calculating the specific activity. Specific Activity=ΔOD600 nm/μM/min.

[4] = 0 hours, Balb/c mice, I.P. 4×10^7 CFU, treated 30 min post infection: 2638A 200 μg/mouse I.P., Vancomycin 375 μg/mouse s.c., Oxacillin 1250 μg/mouse s.c.

## Lysostaphin: Lysostaphin (Sigma), peptidoglycan hydrolase control in plate lysis [reference compound]
[1]
  appearance and persistence of the cleared zone in plate lysis: cleared zone remains that way for days or weeks

## CN[C@H](CC(C)C)C(=O)N[C@H]1C(=O)N[C@@H](CC(N)=O)C(=O)N[C@H]2C(=O)N[C@H]3C(=O)N[C@H](C(=O)N[C@H](C(=O)O)c4cc(O)cc(O)c4-c4cc3ccc4O)[C@H](O)c3ccc(c(Cl)c3)Oc3cc2cc(c3O[C@@H]2O[C@H](CO)[C@@H](O)[C@H](O)[C@H]2O[C@H]2C[C@](C)(N)[C@H](O)[C@H](C)O2)Oc2ccc(cc2Cl)[C@H]1O [Vancomycin]
MRSA strain NRS382; [4]
  % Survival: 100%
MRSA strain NRS382; 4 hours, same model and doses
  % Survival: 100%
MRSA strain NRS382; 8 hours, same model and doses
  % Survival: 100%
MRSA strain NRS382; 12 hours, same model and doses
  % Survival: 100%
MRSA strain NRS382; 16 hours, same model and doses
  % Survival: 100%
MRSA strain NRS382; 20 hours, same model and doses
  % Survival: 100%
MRSA strain NRS382; 24 hours, same model and doses
  % Survival: 100%
MRSA strain NRS382; 28 hours, same model and doses
  % Survival: 100%
MRSA strain NRS382; 32 hours, same model and doses
  % Survival: 100%
MRSA strain NRS382; 36 hours, same model and doses
  % Survival: 100%
MRSA strain NRS382; 40 hours, same model and doses
  % Survival: 100%
MRSA strain NRS382; 44 hours, same model and doses
  % Survival: 100%
MRSA strain NRS382; 48 hours (end of the experiment), same model and doses
  % Survival: 100%
MRSA strain NRS382; 48 hours, score 0-5 per Table 4
  septicemia score at the end of the experiment: 0
MRSA strain NRS382
  Mean NRS382 Titer in the Blood: 1.8 ± 3.3 × 10^1 CFU/ml

## Cc1onc(-c2ccccc2)c1C(=O)N[C@@H]1C(=O)N2[C@@H]1SC(C)(C)[C@@H]2C(=O)O [Oxacillin]
MRSA strain NRS382; [4]
  % Survival: 100%
MRSA strain NRS382; 4 hours, same model and doses
  % Survival: 100%
MRSA strain NRS382; 8 hours, same model and doses
  % Survival: 100%
MRSA strain NRS382; 12 hours, same model and doses
  % Survival: 100%
MRSA strain NRS382; 16 hours, same model and doses
  % Survival: 100%
MRSA strain NRS382; 20 hours, same model and doses
  % Survival: 40%
MRSA strain NRS382; 24 hours, same model and doses
  % Survival: 40%
MRSA strain NRS382; 28 hours, same model and doses
  % Survival: 30%
MRSA strain NRS382; 32 hours, same model and doses
  % Survival: 30%
MRSA strain NRS382; 36 hours, same model and doses
  % Survival: 30%
MRSA strain NRS382; 40 hours, same model and doses
  % Survival: 30%
MRSA strain NRS382; 44 hours, same model and doses
  % Survival: 30%
MRSA strain NRS382
  Mean NRS382 Titer in the Blood: 0.9 ± 1.6 × 10^3 CFU/ml
MRSA strain NRS382; after 16 to 20 hours, same model and doses
  survival rate: less than 40%
MRSA strain NRS382; at 20 hours post infection, maintained until the end, score 0-5 per Table 4
  average septicemia score: approximately 4

B1: 2638A 139-486: truncated endolysin with full length amidase and SH3b domains, SEQ ID NO:5 (protein)
chain: MRPKDAKKDEKSQVCSGLAMEKYDITNLNAKQDKSKNGSVKELKHIYSNHIKGNKITAPKPSIQGVVIHNDYGSMTPSQYLPWLYARENNGTHVNGWASVYANRNEVLWYHPTDYVEWHCGNQWANANLIGFEVCESYPGRISDKLFLENEEATLKVAADVMKSYGLPVNRNTVRLHNEFFGTSCPHRSWDLHVGKGEPYTTTNINKMKDYFIKRIKHYYDGGKLEVSKAATIKQSDVKQEVKKQEAKQIVKATDWKQNKDGIWYKAEHASFTVTAPEGIITRYKGPWTGHPQAGVLQKGQTIKYDEVQKFDGHVWVSWETFEGETVYMPVRTWDAKTGKVGKLWGEIKLEHHHHHH
modifications: Phage 2638a
S. aureus strain Newman [2]
  staphylolytic activity (zones of clearing) in the zymogram: active
S. aureus strain Newman [3]
  activity in the turbidity reduction assay: appreciable activity

B2: 2638A 1-180Mut-486: repaired full length construct, codon 180 TTG silently mutated to CTC, SEQ ID NO:4 (protein)
chain: MLTAIDYLTKKGWKISSDPRTYDGYPKNYGYRNYHENGINYDEFCGGYHRAFDVYSNETNDVPAVTSGTVIEANDYGNFGGTFVIRDANDNDWIYGHLQRGSMRFVVGDKVNQGDIIGLQGNSNYYDNPMSVHLHLQLRPKDAKKDEKSQVCSGLAMEKYDITNLNAKQDKSKNGSVKELKHIYSNHIKGNKITAPKPSIQGVVIHNDYGSMTPSQYLPWLYARENNGTHVNGWASVYANRNEVLWYHPTDYVEWHCGNQWANANLIGFEVCESYPGRISDKLFLENEEATLKVAADVMKSYGLPVNRNTVRLHNEFFGTSCPHRSWDLHVGKGEPYTTTNINKMKDYFIKRIKHYYDGGKLEVSKAATIKQSDVKQEVKKQEAKQIVKATDWKQNKDGIWYKAEHASFTVTAPEGIITRYKGPWTGHPQAGVLQKGQTIKYDEVQKFDGHVWVSWETFEGETVYMPVRTWDAKTGKVGKLWGEIKLEHHHHHH
modifications: Mutated Phage 2638a
S. aureus strain Newman [3]
  activity in the turbidity reduction assay: appreciable activity

B3: 2638A 180-486: engineered amidase-SH3b construct initiated at codon 180, SEQ ID NO:6 (protein)
chain: MKHIYSNHIKGNKITAPKPSIQGVVIHNDYGSMTPSQYLPWLYARENNGTHVNGWASVYANRNEVLWYHPTDYVEWHCGNQWANANLIGFEVCESYPGRISDKLFLENEEATLKVAADVMKSYGLPVNRNTVRLHNEFFGTSCPHRSWDLHVGKGEPYTTTNINKMKDYFIKRIKHYYDGGKLEVSKAATIKQSDVKQEVKKQEAKQIVKATDWKQNKDGIWYKAEHASFTVTAPEGIITRYKGPWTGHPQAGVLQKGQTIKYDEVQKFDGHVWVSWETFEGETVYMPVRTWDAKTGKVGKLWGEIKLEHHHHHH
modifications: Phage 2638a
S. aureus strain Newman [3]
  activity in the turbidity reduction assay: appreciable activity

Reference: patent US9206411B2, “Staphylococcal Phage2638A endolysin amidase domain is lytic for Staphylococcus aureus” (priority 2012, dated 2015)
